Data published in patent publication US20240392251A1, “CULTURE MEDIUM AND CULTURE METHOD FOR LUNG CANCER EPITHELIAL CELLS, AND APPLICATION THEREOF” (PRECEDO PHARMACEUTICALS CO., LTD, priority 2021, published 2024).
Ends that are not written are not given here.

What was measured:
Type in all cases: cell-based, human
[1] = test system: lung cancer cells (No. B18); assay: Effects of different factors added to basic medium BM on proliferation of primary lung cancer cells; details: factor added to BM at the concentrations of Table 3; 12 days of culture; FIGS. 1A-1D
Description: (§1) Extracellular matrix gel (Matrigel®) (manufactured by Corning) was diluted with serum-free DMEM/F12 medium at a ratio of 1:100 to prepare an extracellular matrix diluent. The extracellular matrix diluent was added to a 48-well culture plate with 500 μl/well to completely cover the bottom of the wells of the culture plate. The culture plate was let stand for 1 hour in a 37° C. incubator. After 1 hour, the extracellular matrix diluent was removed to provide a Matrigel-coated plate.
Preparation of basic medium (abbreviated as BM): BM was prepared by adding 0.2 vol. % of Primocin (purchased from Invivogen, with a concentration of 50 mg/ml) to the commercial DMEM/F-12 medium to provide a final concentration of 100 μg/ml.
Next, different kinds and concentrations of additive factors (Table 3) were added to the basic medium (BM), so as to prepare culture mediums for lung cancer epithelial cells containing different additive components.
The culture mediums with different components were added at a volume of 500 μl/well to 48-well plates which were coated with extracellular matrix gel (Matrigel). Lung cancer cells (No. B18) isolated from lung cancer tissues according to the same method as described in Example 1 were inoculated at a cell density of 2×10^4 cells/cm^2 in the above-mentioned 48-well culture plates which were coated with Matrigel. After surface disinfection, the plates were placed in a 37° C., 5% CO2 incubator (purchased from Thermo Fisher), and the same number of freshly isolated lung cancer tumor cells (No. B18) were cultured under different medium formulations. The culture mediums were replaced every 4 days after the start of culture. After 12 days of culture, cell counts were performed. The basic medium (BM) without addition of any additive factor was used as a control. The ordinate in the figures represents the ratio of the number of cells obtained after culture in different mediums to the number of cells obtained after culture in basic medium BM.

[2] = test system: lung cancer epithelial cells (Sample No. B26); assay: Effects of different concentrations of the additive factors on proliferation of primary lung cancer cells; details: added to No. 8 medium lacking the factor; cell number ratio to Blank Control; FIGS. 3A-3H
Description: as §1, with “(Matrigel®)” for “(Matrigel®) (manufactured by Corning)”, “200” for “500”
No. 8 culture medium for primary lung cancer epithelial cells was prepared.
Lung cancer epithelial cells derived from cancer tissues were isolated from the cancer tissue of a lung cancer patient (Sample No. B26) using the same method as in Example 1. Next, lung cancer epithelial cells derived from cancer tissues were counted with a flow imaging counter (JIMBIO FIL, Jiangsu Jimbio Technology Co., Ltd.) to get the total number of cells. Then, the cells were inoculated at a density of 4×10^4 cells/cm^2 in a 48-well plate which was coated with Matrigel®. […] of the prepared No. 8 culture medium for primary lung cancer epithelial cells was added to the 48-well plate, which was then placed in a 37° C., 5% CO2 incubator (purchased from Thermo Fisher) for culture. When the cells in the culture plate grew to cover about 80% of the bottom area, the supernatant of medium in the 48-well plate was discarded and 500 μl of 0.05% trypsin (purchased from Gibco) was added for cell digestion, which was then incubated at 37° C. for 10 minutes, until the cells were completely digested as observed under a microscope (EVOS M500, Invitrogen); then the digestion was terminated by using 1 ml of DMEM/F12 culture solution containing 5% (v/v) fetal bovine serum (purchased from ExCell Bio), 100 U/ml penicillin (purchased from Corning), and […] streptomycin (purchased from Corning); the resultant was collected into a 15 ml centrifuge tube and centrifuged at 1500 rpm for 4 minutes, and then the supernatant was discarded. The centrifuged cell pellet was resuspended in the basic medium BM and the cells were counted with a flow imaging counter (JIMBIO FIL, Jiangsu Jimbio Technology Co., Ltd.) to get the total number of cells. The obtained cells were used in the following cultivation experiments.
Next, the following 8 formulations of culture medium were prepared for experiments: • Formulation 1: No. 8 culture medium composition without B27 additive; • Formulation 2: No. 8 culture medium composition without fibroblast growth factor; • Formulation 3: No. 8 culture medium composition without transferrin; • Formulation 4: No. 8 culture medium composition without epidermal growth factor; • Formulation 5: No. 8 culture medium composition without Y27632; • Formulation 6: No. 8 culture medium composition without Compound 1; • Formulation 7: No. 8 culture medium composition without A83-01; • Formulation 8: No. 8 culture medium composition without gastrin.
The digested cell suspension was diluted with the above Formulations 1-8 respectively, and then inoculated into a 48-well plate at a volume of 250 μl with 10,000 cells per well.
When using the medium of Formulation 1, to a 48-well plate inoculated with primary cells was added the prepared B27 additive, with 250 μl per well, the final concentrations of B27 additive were 1:800, 1:400, 1:200, 1:100, 1:50, 1:25, respectively; a well of Blank Control (BC) was set using the medium of Formulation 1.
When using the medium of Formulation 2, to a 48-well plate inoculated with primary cells was added the prepared fibroblast growth factor, with 250 μl per well, the final concentrations of fibroblast growth factor were 80 ng/ml, 40 ng/ml, 20 ng/ml, 10 ng/ml, 5 ng/ml, 2.5 ng/ml, respectively; a well of Blank Control (BC) was set using the medium of Formulation 2. […]

[3] = test system: Hippo pathway related proteins YAP and TAZ in the nucleus; assay: Immunoblotting of Hippo pathway related proteins YAP and TAZ in the nucleus; details: B16 cells, FLM with Compound 1 versus FLM without Compound 1, 12 days; FIG. 10
Description: Freshly isolated primary lung cancer epithelial cell sample (No. B16) was obtained according to the steps described in Example 1. Then, the primary epithelial cells were inoculated onto a 6-well plate coated with Matrigel™. 3 mL of the culture medium FLM and 3 mL of the culture medium FLM without Compound 1 were respectively added to the wells inoculated with the aforementioned epithelial cells. The plate was placed in a 37° C., 5% CO2 incubator (purchased from Thermo Fisher) for culture. The culture mediums were changed every 4 days during the culture process. After 12 days of cultivation, cells of each group were collected and the […] of Compound 1 on Hippo pathway related proteins YAP and TAZ in the nucleus was detected using conventional immunoblotting method. Yes associated protein (YAP) and its homologous transcriptional co-activator PDZ-binding motif (TAZ) are key effectors in the Hippo pathway that control cell growth and organ size, and their dysregulation may lead to tumor development or hypertrophy. After activation, YAP/TAZ translocate to the nucleus and bind to TEAD transcription factors, promoting cell proliferation or regulated transcription process.

For C[C@@H](N)[C@H]1CC[C@H](C(=O)Nc2ccncc2)CC1 [Compound Y27632, reference compound], the “effect on cell proliferation (ratio of number of cells to that in basic medium BM)” value [1] was “certain promoting effects on cell proliferation in specific concentration ranges” and the “amount in the culture medium, most preferably” value (“amount in the culture medium” below) [2] was 10 µM.

With Cc1cccc(-c2nn(C(=S)Nc3ccccc3)cc2-c2ccnc3ccccc23)n1 [Compound A83-01, reference compound] the “effect on cell proliferation (ratio of number of cells to that in basic medium BM)” value [1] was “certain promoting effects on cell proliferation in specific concentration ranges” and the “amount in the culture medium” value [2] was 0.5 µM.

For “transferrin: additive factor from Sino Biological Inc.”, the “effect on cell proliferation (ratio of number of cells to that in basic medium BM)” value [1] was “certain promoting effects on cell proliferation in specific concentration ranges” and the “amount in the culture medium” value [2] was 20 ng/mL.

CN1C(=O)C(c2c(F)cccc2F)N(C)c2nc(Nc3ccc(S(N)(=O)=O)cc3)ncc21 (stereo not shown) [Compound 1, 4-((7-(2,6-Difluorophenyl)-5,8-dimethyl-6-oxo-5,6,7,8-tetrahydropteridin-2-yl)amino)benzsulfamide] was tested, and the “effect on cell proliferation (ratio of number of cells to that in basic medium BM)” value [1] was “certain promoting effects on cell proliferation in specific concentration ranges”, the “amount in the culture medium” value [2] was 5 µM and the “expression of YAP and TAZ proteins in the nucleus” value [3] was “significant increase”.

With fibroblast growth factor the “effect on cell proliferation (ratio of number of cells to that in basic medium BM)” value [1] was “certain promoting effects on cell proliferation in specific concentration ranges” and the “amount in the culture medium” value [2] was 10 ng/mL.

For “gastrin: additive factor from Sino Biological Inc. (QGPWLEEEEEAYGWMDF; ends and bridges not checked; UniProt P01350 76-92, looked up)”, the “effect on cell proliferation (ratio of number of cells to that in basic medium BM)” value [1] was “certain promoting effects on cell proliferation in specific concentration ranges” and the “amount in the culture medium” value [2] was 10 ng/mL.
